Test results: paper PMC11031590, “Narazaciclib, a novel multi-kinase inhibitor with potent activity against CSF1R, FLT3 and CDK6, shows strong anti-AML activity in defined preclinical models” (Scientific Reports, 2024)

What was measured:
[1] = test system: Ba/F3-ETV6-CSF1R xenograft; assay: Ba/F3-ETV6-CSF1R subcutaneous xenograft model; assay type: in vivo, NOD/scid mice; conditions: either 50 mg/kg or 100 mg/kg
Source text: The subcutaneous cell line xenograft (CDX) models and systemic patient-derived xenograft (PDX) models of AML have been extensively described before. For the subcutaneous MV-4-11 CDX model, 5 × 10^6 MV-4-11 tumor cells harvested from exponential growth phase were mixed with Matrigel (1:1) and then inoculated into the right front flank region of 6- to 7-week-old female NOD/scid mice for tumor development. MV-4-11 tumor-bearing mice were randomized into 5 groups (N = 8) when their tumor volume reached approximately 100 mm^3 and received their designated treatments following randomization. Narazaciclib was administrated intraperitoneally at 100 mg/kg twice per week for 3 weeks, while Azacitidine was administrated intraperitoneally at 3 mg/kg twice per week for 3 weeks. For the subcutaneous Ba/F3-ETV6-CSF1R CDX model, 1 × 10^6 Ba/F3-ETV6-CSF1R tumor cells harvested from exponential growth phase were mixed with Matrigel (1:1) and then inoculated into the right front flank region of 6- to 8-week-old female NOD/scid mice for tumor development. Ba/F3-ETV6-CSF1R tumor-bearing mice were randomized into 5 groups (N = 6) when their tumor volume reached approximately 100 mm^3 and received their designated treatments following randomization. […] Tumor volume and body weight were measured at different time points and tumor growth inhibition (TGI) was used as index to determine the therapeutic efficacy.

CDK6-CyclinD1 = CDK6-CyclinD1 (Homo sapiens, UniProt Q00534); assay: CDK6 TR-FRET kinase assay; assay type: biochemical; conditions: ATP 250 µM; read-out: IC50 CDK6 enzymatic activity
Protocol: For CDK6 inhibition, a Time-resolved fluorescence energy transfer (TR-FRET) kinase assay was performed according to the manufacturer’s instructions. Briefly, narazaciclib at various concentrations was pre-incubated with CDK6-CyclinD1 in kinase buffer at 25 °C for 1 h and then incubated with 12.5 nM Ulight-4E-BP1 peptide and 250 µM ATP at 25 °C for 2 h. The reaction was stopped by incubating with EDTA-containing stop buffer at 25 °C for 5 min. Subsequently, the mixture was incubated with detection buffer at 25 °C for 1 h. Finally, the signal was read on a Nivo Reader in TR-FRET mode (excitation at 320 nm and emission at 665 nm and 615 nm). The signal of the blank control was subtracted from the maximum signal (DMSO without compound) as well as from the value of narazaciclib at each concentration. This corrected emission ratio (ER) was used to calculate the percentage of enzyme activity recovery: enzyme activity recovery (%) = [(narazaciclib ER – blank control ER)[…]] × 100. The results were fitted to a dose–response curve by a 4-parameter log-logistic model: Inhibition%=Bottom+Top-Bottom/1+10^logEC50-x∗HillSlope

Ba/F3-FLT3 = Ba/F3-FLT3 proliferation assay; assay type: cell-based, mouse
Protocol: (§1) The recombinant Ba/F3 cell lines overexpressing human CSF1R, or human RBM6-CSF1R, or human ETV6-CSF1R were generated using a retrovirus vector (Kyinno Co., Ltd. Beijing). The recombinant Ba/F3 lines overexpressing human Kras G12C orEGFR-L718Q mutants, and different mutant variants of FLT3 were also similarly created as well. A standard proliferation assay via CTG readout was performed according to the vendor’s instructions (KYinno Biotechnology Co., Ltd. Beijing).

MOLM-16 = assay: AML cell line in vitro proliferation assay; assay type: cell-based
Protocol: (§2) Narazaciclib was serially diluted with culture medium to 9 final assay concentrations from 0.01 to 100 μM. The assay was performed with both a negative control (vehicle) and a positive control (Cisplatin) in triplicate. The AML cell lines at log-growth phase were cultured in 96-well plates (black transparent flat bottom 96-well plate, Corning, Cat# 3603, FBS, ExCell Bio., Cat# FND500) in the presence of narazaciclib or Cisplatin at various concentrations for 72 h or 120 h (only for AML-193 cell line), followed by CTG readout according to the manufacturer’s instruction (CellTiter-Glo Luminescent Cell Viability Assay, Promega, Cat# G7573). Viability%=Lumdrug-Lummedium control/Lumcell control-Lummedium control×100%. Lumcell control-Lummedium controlas100%,LumMediumcontrolas0%. Proliferationfold increase=D5-LumNone treated-LumMedium control/D2LumNone treated-LumMedium control
(§3) Dose–response curves were fitted by a 4-parameter log-logistic model: Inhibition%=Bottom+Top-Bottom/1+10^logEC50-x∗HillSlope where Top and Bottom are the two asymptotes of the sigmoidal curve, EC50 is the relative IC50, concentration x is in log-10 scale and HillSlope is the slope at the EC50 point on the fitted curve. The fitted area under the curve (AUC) was calculated by: Inhibition%=Bottom+Top-Bottom/1+10^logEC50-x∗HillSlope where a represents the log10-transformed minimal concentration and b represents the log10-transformed maximal concentration. An extremely strong positive correlation between the absolute IC50 and AUC is shown in Supplemental Fig. S5.

HEL = assay: AML cell line in vitro proliferation assay; assay type: cell-based
Protocol: as §2, §3

MOLM-13 = assay: AML cell line in vitro proliferation assay; assay type: cell-based
Protocol: as §2, §3

AML-193 = assay: AML cell line in vitro proliferation assay; assay type: cell-based
Protocol: as §2, §3

KG-1A = assay: AML cell line in vitro proliferation assay; assay type: cell-based
Protocol: as §2, §3

SKNO-1 = assay: AML cell line in vitro proliferation assay; assay type: cell-based
Protocol: as §2, §3

ML2 = assay: AML cell line in vitro proliferation assay; assay type: cell-based
Protocol: as §2, §3

CMK = assay: AML cell line in vitro proliferation assay; assay type: cell-based
Protocol: as §2, §3

M07E = assay: AML cell line in vitro proliferation assay; assay type: cell-based
Protocol: as §2, §3

Ba/F3-FLT3-ITD (N701K) = Ba/F3-FLT3-ITD (N701K) proliferation assay; assay type: cell-based, mouse
Protocol: as §1

[2] = area under the dose–response curve

CDK6-CyclinD1, sequence (Q00534 whole entry): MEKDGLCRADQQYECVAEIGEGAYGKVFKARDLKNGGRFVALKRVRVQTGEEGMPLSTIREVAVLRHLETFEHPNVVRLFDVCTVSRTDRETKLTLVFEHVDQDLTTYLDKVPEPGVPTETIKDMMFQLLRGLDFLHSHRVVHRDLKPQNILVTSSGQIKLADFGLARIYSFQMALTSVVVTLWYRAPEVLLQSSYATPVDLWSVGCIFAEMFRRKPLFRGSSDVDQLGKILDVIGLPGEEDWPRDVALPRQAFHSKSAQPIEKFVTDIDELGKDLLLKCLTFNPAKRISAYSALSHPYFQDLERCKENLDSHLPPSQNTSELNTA
CDK6-CyclinD1, sequence (P24385 whole entry partner): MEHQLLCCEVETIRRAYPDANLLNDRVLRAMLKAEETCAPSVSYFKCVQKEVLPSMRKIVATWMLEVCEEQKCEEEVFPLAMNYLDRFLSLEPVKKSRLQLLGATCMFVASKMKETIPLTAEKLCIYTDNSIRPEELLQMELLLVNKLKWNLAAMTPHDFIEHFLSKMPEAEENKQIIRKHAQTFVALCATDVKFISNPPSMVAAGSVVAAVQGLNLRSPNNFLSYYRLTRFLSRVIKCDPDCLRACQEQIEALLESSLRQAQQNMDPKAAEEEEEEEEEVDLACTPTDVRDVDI

CN1CCN(c2ccc(Nc3ncc4cc(C#N)c(=O)n(C5CCCC5)c4n3)cc2)CC1 [Narazaciclib, narazaciclib]
tumor growth [1]: significantly delayed the tumor growth
IC50 (CDK6-CyclinD1): 0.00053 µM
% of Ba/F3-FLT3 (IC50) (Ba/F3-FLT3; Ba/F3-FLT3): 100.00%
IC50 (Ba/F3-FLT3; Mus musculus, Ba/F3-FLT3 (wild type)): 0.301 µM
IC50 (MOLM-16; MOLM16, MOLM-16, 72 h, CTG): 4.77 µM
Classification by AUC (MOLM-16; MOLM-16): Insensitive (AUC ≥ 2.8, insensitive)
AUC (MOLM-16; MOLM-16, area under the dose–response curve): 2.992
Classification by AUC (HEL): Insensitive (AUC ≥ 2.8, insensitive)
IC50 (HEL; Homo sapiens, 72 h, CTG): 15.3 µM
AUC (HEL; [2]): 3.335
IC50 (MOLM-13; Homo sapiens, MOLM-13, 72 h, CTG): 0.103 µM
Classification by AUC (MOLM-13; MOLM-13): Sensitive (AUC ≤ 2.4, sensitive)
AUC (MOLM-13; MOLM-13, area under the dose–response curve): 1.068
Classification by AUC (AML-193; AML-193): Intermediate (2.4 < AUC < 2.8, intermediate)
IC50 (AML-193; AML-193, 120 h, CTG): 6.29 µM
AUC (AML-193; AML-193, area under the dose–response curve): 2.514
Classification by AUC (KG-1A): Sensitive (AUC ≤ 2.4, sensitive)
IC50 (KG-1A; Homo sapiens, 72 h, CTG): 1.06 µM
AUC (KG-1A; [2]): 2.289
Classification by AUC (SKNO-1; SKNO-1): Sensitive (AUC ≤ 2.4, sensitive)
IC50 (SKNO-1; SKNO-1, 72 h, CTG): 0.234 µM
AUC (SKNO-1; SKNO-1, area under the dose–response curve): 1.97
IC50 (ML2; Homo sapiens, ML-2, ML2, 72 h, CTG): 3.6 µM
Classification by AUC (ML2; ML2): Intermediate (2.4 < AUC < 2.8, intermediate)
AUC (ML2; ML2, area under the dose–response curve): 2.633
Classification by AUC (CMK): Sensitive (AUC ≤ 2.4, sensitive)
IC50 (CMK; Homo sapiens, 72 h, CTG): 1.65 µM
AUC (CMK; [2]): 2.347
Classification by AUC (M07E): Intermediate (2.4 < AUC < 2.8, intermediate)
IC50 (M07E; M-07e, 72 h, CTG): 4.86 µM
AUC (M07E; [2]): 2.557
% of Ba/F3-FLT3 (IC50) (Ba/F3-FLT3-ITD (N701K)): 38.91%
IC50 (Ba/F3-FLT3-ITD (N701K); Mus musculus): 0.117 µM
